Measured values: patent publication US8324228B2, “Pyrimidine classical cannabinoid compounds and related methods of use” (priority 2008, dated 2012)

System: glioblastoma brain cancer cell line LN-229
Experiment: Cytotoxicity assay (CCK8 viability)
Assay type: cell-based
Conditions: Homo sapiens, cytotoxicity against LN-229 cells, 18 hours incubation
Protocol: Cytoxocity assay: Cells were seeded on a 96 well polystyrene plate in full serum media at a density of 75,000 cells per milliliter, 100 μL per well. Plates were incubated at 37° C. and 5% CO2 for 24 hours to allow cell attachment. Drug solutions were prepared in DMSO at 100× concentration and mixed 1:100 in 1% FBS media to yield the desired concentration. Drug-media mixtures were vortexed immediately prior to administration to cells. Full serum media was removed and replaced with drug-media mixtures and incubated for 18 hours. 10 μL of Cell Counting Kit 8 (CCK8, Dojindo# CK04-11) was added to each well to colormetrically assess viability. After 2-4 hours of incubation with the CCK8 dye, absorbance was read at 450 nm by a BioTek Synergy 2 plate reader.
The cytotoxicity of selected compounds against the glioblastoma brain cancer cell line LN-229 is depicted in Table 1.

| SMILES | EC50 [µM] |
| --- | --- |
| CCCCCCC(C)(C)c1nc(O)c2c(n1)OC(C)(C)[C@H]1CC[C@@H](C)C[C@@H]21 [Compound 6b, (6aS,9R,10aR)-6,6,9-Trimethyl-3-(2-methyloctan-2-yl)-6a,7,8,9,10,10a-hexahydro-6H-isochromeno[3,4-d]pyrimidin-1-ol] | 27.3 |
| C[C@@H]1CC[C@H]2[C@@H](C1)c1c(O)nc(C(C)(C)C3CCCCC3)nc1OC2(C)C [Compound 6d, (6aS,9R,10aR)-3-(2-Cyclohexylpropan-2-yl)-6,6,9-trimethyl-6a,7,8,9,10,10a-hexahydro-6H-isochromeno[3,4-d]pyrimidin-1-ol] | 10.6 |
| C[C@@H]1CC[C@H]2[C@@H](C1)c1c(O)nc(C(C)(C)c3cccs3)nc1OC2(C)C [Compound 6e, (6aS,9R,10aR)-6,6,9-Trimethyl-3-(2-(thiophen-2-yl)propan-2-yl)-6a,7,8,9,10,10a-hexahydro-6H-isochromeno[3,4-d]pyrimidin-1-ol] | 30.1 |
